Molecular target: T1, TNKS2 (Homo sapiens, UniProt Q9H2K2)
T1 construct: purchased BPS Bioscience, San Diego, USA 80572 (TNKS2 Histone Ribosylation Assay Kit)
T1 sequence (Q9H2K2 1-1166): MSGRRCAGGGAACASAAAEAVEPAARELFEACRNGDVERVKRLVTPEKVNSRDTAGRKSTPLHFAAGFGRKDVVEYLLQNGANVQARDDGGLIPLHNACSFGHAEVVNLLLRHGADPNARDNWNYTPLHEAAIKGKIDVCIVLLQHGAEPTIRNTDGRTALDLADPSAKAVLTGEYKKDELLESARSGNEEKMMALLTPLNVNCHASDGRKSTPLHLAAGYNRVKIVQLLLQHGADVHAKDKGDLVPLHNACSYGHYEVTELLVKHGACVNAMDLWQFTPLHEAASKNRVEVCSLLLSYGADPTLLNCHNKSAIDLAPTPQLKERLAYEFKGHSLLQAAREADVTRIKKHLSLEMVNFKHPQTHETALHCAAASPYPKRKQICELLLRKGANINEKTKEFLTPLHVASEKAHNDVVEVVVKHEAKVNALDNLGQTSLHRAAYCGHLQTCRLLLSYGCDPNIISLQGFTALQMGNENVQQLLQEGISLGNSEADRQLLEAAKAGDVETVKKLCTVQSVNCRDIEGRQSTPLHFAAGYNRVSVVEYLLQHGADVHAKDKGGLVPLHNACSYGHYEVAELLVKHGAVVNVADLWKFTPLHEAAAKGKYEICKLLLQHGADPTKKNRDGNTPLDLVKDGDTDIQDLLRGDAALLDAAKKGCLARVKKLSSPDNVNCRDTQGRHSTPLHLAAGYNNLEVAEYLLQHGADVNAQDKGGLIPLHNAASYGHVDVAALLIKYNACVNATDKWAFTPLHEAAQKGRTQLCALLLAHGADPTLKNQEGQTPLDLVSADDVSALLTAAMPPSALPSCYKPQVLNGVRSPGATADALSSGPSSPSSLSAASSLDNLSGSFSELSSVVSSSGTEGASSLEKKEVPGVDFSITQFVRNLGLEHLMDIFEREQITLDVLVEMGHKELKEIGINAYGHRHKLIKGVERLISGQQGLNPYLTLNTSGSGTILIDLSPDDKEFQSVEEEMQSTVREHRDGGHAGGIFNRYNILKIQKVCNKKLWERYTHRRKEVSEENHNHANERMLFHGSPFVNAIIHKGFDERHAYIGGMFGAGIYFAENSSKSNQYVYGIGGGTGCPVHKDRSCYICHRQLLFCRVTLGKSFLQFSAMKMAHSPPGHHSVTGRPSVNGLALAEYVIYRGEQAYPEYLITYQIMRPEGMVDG
Assay: TNKS2 Assay B (auto-parsylation, [3H]-NAD+ SPA)
Format: biochemical
Conditions: 6 nM TNKS2, auto-parsylation, over night at room temperature

IC50 [µM] | SMILES
0.0069 | CNC(=O)c1[nH]cnc1C(=O)N[C@H]1CC[C@@]2(CCN(c3ccc(F)cc3Cl)C2=O)CC1 [Example 140, N^4-[(trans)-2-(2-chloro-4-fluorophenyl)-1-oxo-2-azaspiro[4.5]dec-8-yl]-N^5-methyl-1H-imidazole-4,5-dicarboxamide]
0.033 | Cc1cc(C)n2ncc(C(=O)N[C@H]3CC[C@H](C(=O)Nc4cc(F)c(F)cc4Cl)CC3)c2n1 [Example 134, N-{trans-4-[(2-chloro-4,5-difluorophenyl)carbamoyl]cyclohexyl}-5,7-dimethylpyrazolo[1,5-a]pyrimidine-3-carboxamide]
0.06 | O=C(N[C@H]1CC[C@H](C(=O)Nc2ccc(F)cc2Cl)CC1)c1cnn2ccc(N3CCCC3)nc12 [Example 108]
0.065 | Cc1cc(C)n2ncc(C(=O)NC34CCC(C(=O)Nc5cc(C)c(F)cc5Cl)(CC3)CC4)c2n1 [Example 126, N-{4-[(2-chloro-4-fluoro-5-methylphenyl)carbamoyl]bicyclo[2.2.2]oct-1-yl}-5,7-dimethylpyrazolo[1,5-a]pyrimidine-3-carboxamide]
4.3 | O=C(NCC(F)(F)F)c1nc[nH]c1C(=O)N[C@H]1CC[C@H](C(=O)Nc2cc(N3CCOCC3)ccc2Cl)CC1 [Example 95, N^5-(trans-4-{[2-chloro-5-(morpholin-4-yl)phenyl]carbamoyl}cyclohexyl)-N^4-(2,2,2-trifluoroethyl)-1H-imidazole-4,5-dicarboxamide]
0.28 | CC(C)(O)CNC(=O)c1nc[nH]c1C(=O)N[C@H]1CC[C@H](C(=O)Nc2cc(C(F)(F)F)ccc2Cl)CC1 [Example 145, N^5-(trans-4-{[2-chloro-5-(trifluoromethyl)phenyl]carbamoyl}cyclohexyl)-N^4-(2-hydroxy-2-methylpropyl)-1H-imidazole-4,5-dicarboxamide]
1.3 | O=C(N[C@H]1CC[C@]2(CCN(c3ccc(F)cc3Cl)C2=O)CC1)c1cnn2cccnc12 [Example 148, N-[(cis)-2-(2-chloro-4-fluorophenyl)-1-oxo-2-azaspiro[4.5]dec-8-yl]pyrazolo[1,5-a]pyrimidine-3-carboxamide]
0.23 | CN(c1ccccc1)C(=O)[C@H]1CC[C@H](NC(=O)c2cnn3cccnc23)CC1 [Example 156, N-{trans-4-[methyl(phenyl)carbamoyl]cyclohexyl}pyrazolo[1,5-a]pyrimidine-3-carboxamide]
0.15 | COCC(C)NC(=O)c1nc[nH]c1C(=O)N[C@H]1CC[C@H](C(=O)Nc2cc(C(F)(F)F)ccc2Cl)CC1 (stereo partly drawn) [Example 143, N^5-(trans-4-{[2-chloro-5-(trifluoromethyl)phenyl]carbamoyl}cyclohexyl)-N^4-(1-methoxypropan-2-yl)-1H-imidazole-4,5-dicarboxamide]
0.15 | Cc1cc(F)cc(Cl)c1NC(=O)[C@H]1CC[C@H](NC(=O)c2cnn3cccnc23)CC1 [Example 151, N-{trans-4-[(2-chloro-4-fluoro-6-methylphenyl)carbamoyl]cyclohexyl}pyrazolo[1,5-a]pyrimidine-3-carboxamide]
0.0021 | O=C(NCCN1CCCCC1)c1nc[nH]c1C(=O)N[C@H]1CC[C@H](C(=O)Nc2cc(F)c(F)cc2Cl)CC1 [Example 4, N^5-{trans-4-[(2-chloro-4,5-difluorophenyl)carbamoyl]cyclohexyl}-N^4-[2-(piperidin-1-yl)ethyl]-1H-imidazole-4,5-dicarboxamide]
0.039 | O=C(NCC1CCCO1)c1nc[nH]c1C(=O)N[C@H]1CC[C@H](C(=O)Nc2cnccc2Cl)CC1 (stereo partly drawn) [Example 97, N^5-{trans-4-[(4-chloropyridin-3-yl)carbamoyl]cyclohexyl}-N^4-(tetrahydrofuran-2-ylmethyl)-1H-imidazole-4,5-dicarboxamide]
0.11 | CNC(=O)c1nc[nH]c1C(=O)N[C@H]1CC[C@H](C(=O)Nc2ccc(C)cc2Cl)CC1 [Example 9, N^5-{trans-4-[(2-chloro-4-methylphenyl)carbamoyl]cyclohexyl}-N^4-methyl-1H-imidazole-4,5-dicarboxamide]

The remaining lines, values behind:

SMILES | IC50 [µM]
Cc1cc(NC(=O)[C@H]2CC[C@H](NC(=O)c3[nH]cnc3C(=O)NCC(C)(C)O)CC2)c(Cl)cc1F [Example 100, N^5-{trans-4-[(2-chloro-4-fluoro-5-methylphenyl)carbamoyl]cyclohexyl}-N^4-(2-hydroxy-2-methylpropyl)-1H-imidazole-4,5-dicarboxamide] | 0.11
Cc1c(C(C)N(C)C)cnc2c(C(=O)N[C@H]3CC[C@H](C(=O)Nc4ccc(F)cc4Cl)CC3)cnn12 (single isomer, unassigned) [Example 57, N-{trans-4-[(2-chloro-4-fluorophenyl)carbamoyl]cyclohexyl}-6-[1-(dimethylamino)ethyl]-7-methylpyrazolo[1,5-a]pyrimidine-3-carboxamide] | 0.16
O=C(N[C@H]1CC[C@H](C(=O)Nc2cc(F)c(F)cc2Cl)CC1)c1cnn2cccnc12 [Example 130, N-{trans-4-[(2-chloro-4,5-difluorophenyl)carbamoyl]cyclohexyl}pyrazolo[1,5-a]pyrimidine-3-carboxamide] | 0.018
COCC(C)NC(=O)c1nc[nH]c1C(=O)N[C@H]1CC[C@@]2(CCN(c3ccc(F)cc3Cl)C2=O)CC1 (mixture of isomers) [Example 164, N^5-[(trans)-2-(2-chloro-4-fluorophenyl)-1-oxo-2-azaspiro[4.5]dec-8-yl]-N^4-(1-methoxypropan-2-yl)-1H-imidazole-4,5-dicarboxamide] | 0.028
CNC(=O)c1[nH]cnc1C(=O)NC1CCC(C(=O)Nc2ccc(F)cc2Cl)CC1OC (stereo not drawn) [Example 36, N^4-{(1α,2β,4β)-4-[(2-chloro-4-fluorophenyl)carbamoyl]-2-methoxycyclohexyl}-N^5-methyl-1H-imidazole-4,5-dicarboxamide] | > 10
O=C(NCCN1CCCCC1)c1nc[nH]c1C(=O)N[C@H]1CC[C@@]2(CCN(c3ccc(F)cc3Cl)C2=O)CC1 [Example 161, N^5-[(trans)-2-(2-chloro-4-fluorophenyl)-1-oxo-2-azaspiro[4.5]dec-8-yl]-N^4-[2-(piperidin-1-yl)ethyl]-1H-imidazole-4,5-dicarboxamide] | 0.0016
O=C(N[C@H]1CC[C@@]2(CCN(c3ccc(F)cc3Cl)C2=O)CC1)c1cnn2cccnc12 [Example 136, N-[(trans)-2-(2-chloro-4-fluorophenyl)-1-oxo-2-azaspiro[4.5]dec-8-yl]pyrazolo[1,5-a]pyrimidine-3-carboxamide] | 0.0047
O=C(NCC1CCCO1)c1nc[nH]c1C(=O)N[C@H]1CC[C@H](C(=O)Nc2cc(C(F)(F)F)ccc2Cl)CC1 (stereo partly drawn) [Example 146, N^5-(trans-4-{[2-chloro-5-(trifluoromethyl)phenyl]carbamoyl}cyclohexyl)-N^4-(tetrahydrofuran-2-ylmethyl)-1H-imidazole-4,5-dicarboxamide] | 0.1
CNC(=O)c1nc[nH]c1C(=O)N[C@H]1CC[C@H](C(=O)Nc2c(F)cc(F)cc2Cl)CC1 [Example 6, N^5-{trans-4-[(2-chloro-4,6-difluorophenyl)carbamoyl]cyclohexyl}-N^4-methyl-1H-imidazole-4,5-dicarboxamide] | 0.06
O=C(NC12CCC(C(=O)Nc3cnccc3Cl)(CC1)CC2)c1cnc2cccnn12 [Example 124, N-{4-[(4-chloropyridin-3-yl)carbamoyl]bicyclo[2.2.2]oct-1-yl}imidazo[1,2-b]pyridazine-3-carboxamide] | 0.26
Cc1cc(C)n2ncc(C(=O)N[C@H]3CC[C@H](C(=O)Nc4c(F)cc(F)cc4Cl)CC3)c2n1 [Example 135, N-{trans-4-[(2-chloro-4,6-difluorophenyl)carbamoyl]cyclohexyl}-5,7-dimethylpyrazolo[1,5-a]pyrimidine-3-carboxamide] | 0.029
Cc1cc(NC(=O)C23CCC(NC(=O)c4cnn5cccnc45)(CC2)CC3)c(Cl)cc1F [Example 118, N-{4-[(2-chloro-4-fluoro-5-methylphenyl)carbamoyl]bicyclo[2.2.2]oct-1-yl}pyrazolo[1,5-a]pyrimidine-3-carboxamide] | 0.067
Cc1cc(C)n2ncc(C(=O)NC34CCC(C(=O)Nc5ccc(F)cc5Cl)(CC3)CC4)c2n1 [Example 125, N-{4-[(2-chloro-4-fluorophenyl)carbamoyl]bicyclo[2.2.2]oct-1-yl}-5,7-dimethylpyrazolo[1,5-a]pyrimidine-3-carboxamide] | 0.13
